# Active and inactive are the calls of the source. No rule for the calls is given here.
# Assay: SKN7 mediated toxicity in Saccharomyces cerevisiae, growth rescue counterscreen, dose confirmation (AID 624258);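 also: growth read after three days of incubation at 30 °C; 0% = median of neutral control wells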
# Settings: S. cerevisiae SKN7-toxicity growth rescue, plate reader; at 6.8 µM (top of the series)
row,Structure (SMILES),growth rescue activity
1,CC(C)(C)n1nc(Cc2cccc3ccccc23)c2c(N)ncnc21,-49.1% (inactive)
2,Cc1cc(C(=O)COC(=O)Cc2n[nH]c(=O)c3ccccc23)c(C)n1-c1cccc(C(F)(F)F)c1,-21.5% (inactive)
3,COc1cc2nc(N3CCNCC3)nc(N)c2cc1OC,5.76% (inactive)

# Same assay, conditions: S. cerevisiae SKN7-toxicity growth rescue, plate reader; at 19.5 µM (top of the series)
row,Structure (SMILES),growth rescue activity
1,O=c1oc(-c2ccccc2)cc(Cl)c1Cl,-71.1% (inactive)
2,CC1CC(=Cc2ccc([N+](=O)[O-])cc2)C(=O)O1 (configuration not stated),2.43% (inactive)
3,CCN(CC)C(=O)CSc1ncnc2sc(-c3ccccc3)cc12,-25.1% (inactive)
4,N#Cc1c(N)nc(SCc2ccccc2)c(C#N)c1-c1ccco1,-27.7% (inactive)
5,COc1cccc(/C=N/NC(=O)c2nc(-c3ccccc3)cc(-c3ccccc3)n2)c1O,-39.2% (inactive)
6,Cn1c(CNc2ccccc2O)nc2ccccc21,-50% (inactive)
7,O=C1c2cccc3cc([N+](=O)[O-])cc(c23)C(=O)N1CC1CCCO1 (configuration not stated),23.2% (inactive)
8,O=S(=O)(Nc1ccc(-n2cccc2)cc1)c1ccc(Cl)c(Cl)c1,-92.1% (inactive)
9,CCC(C)c1ccc(NC(=S)NCCn2cc(Br)cn2)cc1 (configuration not stated),-33.1% (inactive)
10,Nc1cc([N+](=O)[O-])ccc1O,-8.46% (inactive)
11,O=C(N/N=C/c1ccc[nH]1)c1sc2ccccc2c1Cl,-72.2% (inactive)
12,O=C(Nc1ccc(Cl)cc1C(=O)Nc1ccc(Br)cn1)c1ccco1,-90.7% (inactive)
13,FC(F)(F)c1cccc(N2CCc3cn[nH]c32)c1,-94.6% (inactive)
14,CCC1=NN(C(=O)c2cccc(Br)c2)C(O)(c2ccc(Br)cc2)C1 (configuration not stated),-2.16% (inactive)
15,CCOc1ccc(S(=O)(=O)n2cc(F)c(=O)[nH]c2=O)cc1,-4.21% (inactive)
16,Oc1cccc(/C=N/N(Cc2ccccc2)c2ccccc2)c1,-91.5% (inactive)
17,CCCCc1ccc(-n2c(Cc3cccs3)n[nH]c2=S)cc1,-23.9% (inactive)
18,O=C1c2cccc(Cl)c2C(=O)c2c1cccc2N1CCCC1,11.5% (inactive)
19,Cc1ccccc1CN(C)CCS(=O)(=O)c1cc(Cl)ccc1Cl,-67.7% (inactive)
20,CC1CCN(c2ccc3c(c2)S(=O)(=O)c2ccccc2C3=O)CC1,-45.6% (inactive)
21,O=C(C1CCN(C2CC(=O)N(c3cccc(Cl)c3)C2=O)CC1)N1CCCC1 (configuration not stated),84.3% (inactive)
22,FC(F)(F)Oc1ccc(NC(=S)Nc2ccc(OC(F)(F)F)cc2)cc1,26% (inactive)
23,COc1cccc(NC(=O)CN(C)C(=O)c2cccnc2Nc2cccc(C(F)(F)F)c2)c1,-21.3% (inactive)

row,Structure (SMILES),growth rescue activity
1,CC1=NN(C(N)=S)C(=O)C1N=Nc1cccc(Cl)c1C (configuration not stated),-42.1% (inactive)
2,O=C(c1ccc(-c2ccccc2)c(F)c1)C1CCCN(C(=O)c2cncs2)C1 (configuration not stated),-45.2% (inactive)
3,Oc1c(C(Nc2cccc(C(F)(F)F)c2)c2ccncc2)ccc2cccnc12 (configuration not stated),-60.6% (inactive)
4,Clc1ccc(C2=NCCN2)cc1,-65.4% (inactive)
5,CCC(=O)NC(c1ccco1)c1cc(Cl)c2cccnc2c1O (configuration not stated),-49.4% (inactive)
6,O=C(c1ccccc1)c1coc2c1C(=O)c1ccccc1C2=O,18.2% (inactive)
7,O=c1c(O)c(-c2ccccc2)oc2ccccc12,-14.5% (inactive)
8,Cc1nn(CCC#N)c(N)c1C1(O)C(=O)Nc2c(Cl)cc(Cl)cc21 (configuration not stated),12.9% (inactive)
9,CSC1SCC2C(=O)N(C)C(C(C)C)C(=O)OCC(NC(=O)c3cnc4ccccc4n3)C(=O)NC(C)C(=O)N(C)C1C(=O)N(C)C(C(C)C)C(=O)OCC(NC(=O)c1cnc3ccccc3n1)C(=O)NC(C)C(=O)N2C (configuration not stated),8.43% (inactive)
10,CC(=N/O)/C(=N\O)c1ccc(C)o1,3.21% (inactive)
11,CC12CNCC(C)(CN(C3(O)C(=O)Nc4ccc(Br)cc43)C1)C2=O (configuration not stated),-39.9% (inactive)
12,O=C(c1ccccc1)N1C(=O)C(c2ccccc2)Oc2ccccc21 (configuration not stated),-57.4% (inactive)
13,O=C(O)CSc1cc(NS(=O)(=O)c2ccc(Br)cc2)c2ccccc2c1O,30.5% (inactive)
14,c1ccc(-c2ccc(OCCCn3cncn3)cc2)cc1,-51.8% (inactive)
15,CCc1ccc(S(=O)(=O)N(C(=O)c2ccncc2)c2ccc(OC(=O)c3ccncc3)cc2)cc1,-42.7% (inactive)
16,Cc1ccc(-n2nnnc2SCC(=O)N2CCc3ccccc3C2)c(C)c1,-18.8% (inactive)
17,CC(=O)C1=C(c2cccc([N+](=O)[O-])c2)N(C(C)=O)n2c(C)nnc2S1,-84.3% (inactive)
18,Cn1c(SCC(=O)N2c3ccccc3Sc3ccc(Cl)cc32)nnc1-c1ccco1,-51.2% (inactive)
19,CCCCNc1c(-c2cccc(Sc3ccc(OC)cc3)c2)nc2ccccn12,-86.4% (inactive)
20,Nc1nc(-c2ccccc2)c(-c2ccc([N+](=O)[O-])cc2)s1,-79.9% (inactive)
21,COc1ccc2c(c1)OC[C@H]1[C@H]2N2C(=O)c3cc(C)ccc3NC(=O)[C@@]2(C)[C@H]1c1ccccc1,122% (inactive)
22,O=S1(=O)CCN2C(=N1)Sc1c2ccc2c1CCCC2,5.5% (inactive)
23,Cc1ccoc1C(=O)Nc1cccc(Oc2ccccc2)c1,-88.5% (inactive)

row,Structure (SMILES),growth rescue activity
1,O=C(Oc1c(-c2ccccc2)c(=O)n2c3c(cccc13)CC2)c1cccc([N+](=O)[O-])c1,-37.6% (inactive)
2,CCCOc1ccc(S(=O)(=O)n2cc(F)c(=O)[nH]c2=O)cc1,0% (inactive)
3,O=C(COc1ccccc1F)Nc1nc(-c2ccccn2)cs1,-57.2% (inactive)
4,O=[N+]([O-])c1ccc(S(=O)Cc2ccccc2)c([N+](=O)[O-])c1 (configuration not stated),-45.8% (inactive)
5,CC1(S(=O)(=O)O)CC(=O)c2ccccc2C1=O (configuration not stated),-12.1% (inactive)
6,S=C(NNc1ccc2ccccc2c1)NC1CCCCC1,-14.9% (inactive)
7,CC(C)N1CCN(c2ccc(OC[C@H]3CO[C@](Cn4cncn4)(c4ccc(Cl)cc4Cl)O3)cc2)CC1,-63.3% (inactive)
8,CC(C)(C)C(O)C(Cc1ccccc1Cl)n1cncn1 (configuration not stated),-53.7% (inactive)
9,O=C(Oc1ccccc1C(=S)N1CCOCC1)c1ccc([N+](=O)[O-])cc1[N+](=O)[O-],-8.27% (inactive)
10,CCCn1c(=O)c(C(=O)NCc2ccc(OC)c(OC)c2)c(O)c2ccccc21,-19.9% (inactive)
11,O=C(COc1ccc(Cl)cc1)Nc1cccc(-c2ccc3nncn3n2)c1,13% (inactive)
12,CN(Cc1cccc(F)c1)C(=O)c1ccc(S(=O)(=O)N2CCCCCC2)cc1,-8.45% (inactive)
13,CC(=O)Oc1ccc(N2C(=O)C3C4C=CC(O4)C3C2=O)cc1 (configuration not stated),16.1% (inactive)
14,CC1CCc2c(C(=O)Nc3ccccn3)csc2C1 (configuration not stated),-95.2% (inactive)
15,COc1ccc(-c2nc(N)sc2C2(O)C(=O)Nc3c(Br)cc(F)cc32)cc1OC (configuration not stated),0.392% (inactive)
16,CCOC(=O)C1=NN(c2ccccc2)C(=O)/C1=C\c1ccc(N(C)C)cc1,-16.7% (inactive)
17,COc1ccccc1N1CCN(C(=O)CCNS(=O)(=O)c2ccc(Br)s2)CC1,9.41% (inactive)
18,O=C(CSc1ccc(-c2ccccn2)nn1)NCc1ccc(F)cc1,1.05% (inactive)
19,CCOC(=O)c1c(C)[nH]c2c1-c1ccccc1C(=O)C2=O,-17.4% (inactive)
20,Cc1cccc(N2CCN(C(=O)C3COc4ccccc4O3)CC2)c1C (configuration not stated),-49.4% (inactive)
21,CC1(C)C(C=C(Cl)Cl)C1C(=O)N1CCN(c2ccccc2)CC1 (configuration not stated),6.49% (inactive)
22,FC(F)(F)c1nc(SCc2ccc(Cl)cc2Cl)n[nH]1,-80.8% (inactive)
23,c1cnc2c(c1)ccc1cccnc12,-64% (inactive)

row,Structure (SMILES),growth rescue activity
1,O=S(=O)(c1ccc(Oc2ccc(Br)cc2)cc1)N1CCOCC1,9.57% (inactive)
2,CC1CCN(c2nc(-c3ccncc3)nc3ccccc23)CC1,-17.2% (inactive)
3,O=C(Nc1nnc(-c2ccccc2)o1)c1ccc(Cl)cc1,-46.1% (inactive)
4,COc1ccc(C(=O)On2c(-c3ccc(Br)cc3)nc3ccccc3c2=O)cc1,-5.26% (inactive)
5,O=c1[nH]c2c(c(=O)[nH]1)OCN(Cc1ccccc1)C2,-23.4% (inactive)
6,CN(C)c1ccc(C=c2c3ccccc3n3c2c2c([n+]3C)CCCC2)cc1,-74.1% (inactive)
7,COC(=O)/C(=C/Nc1ccc(O)cc1)[N+](=O)[O-],-10% (inactive)
8,O=C(Nc1nc(-c2ccccn2)cs1)c1ccc(Br)s1,-44.2% (inactive)
9,N#CC1C(=N)Cc2ccccc2-c2ccccc21 (configuration not stated),-20.3% (inactive)
10,CCn1nc(/C=C/c2ccccc2)nc2c(=O)n(C)c(=O)nc1-2,-44.4% (inactive)
11,CC(C)(C)c1ccc(S(=O)(=O)/N=C2\C=C(NS(=O)(=O)c3ccccc3)C(=O)c3ccccc32)cc1,-5.91% (inactive)
12,O=C(Nc1cccc(C(F)(F)F)c1)c1cccnc1NCCc1ccccc1,-54.3% (inactive)
13,C=CCN(CC=C)C(=S)NC(=O)c1ccc(C)c(Br)c1,-13.6% (inactive)
14,O=C1C=C(NCCc2cc(Br)c(O)c(Br)c2)C(=O)c2ncccc21,30.5% (inactive)
15,NC(=O)N=Nc1c2[nH]c3ccccc3nc-2c2ccccc12,6.67% (inactive)
16,Cc1ccc(NC(=S)c2nc3ccccc3[nH]2)c(C)c1,32.1% (inactive)
17,Cc1ccc(O)c(-c2cc(-c3ccccc3C)[nH]n2)c1,-92.1% (inactive)
18,O=[N+]([O-])c1ccc(/C=N/NC(=S)Nc2ccc(Cl)cc2Cl)s1,-44% (inactive)
19,O=C1c2ccccc2-n2c1nc1ccccc1c2=O,-48.7% (inactive)
20,CCOC(=O)c1nnn(-c2ccc([N+](=O)[O-])cc2[N+](=O)[O-])c1C,17.3% (inactive)

# From PubChem BioAssay AID624258 (Broad Institute, 2012)
